Reference: patent US8287923B2, “Compositions and methods for treating immune disorders” (priority 2005, dated 2012)

Tested on: normal human epidermal keratinocytes (NHEK)
Test: Affymetrix gene array analysis, autoantigen gene expression
Assay type: cell-based
Details: 100 μM
Method: The gene array experiment was performed at the Core Facility of Genomics of the Medical College of Georgia, according to the instructions of the manufacturer (Affymetrix, Santa Clara, Calif.). Briefly, NHEK and OSC2 cells treated with 100 μM EGCG for different time period were extracted for total RNA, the RNA was processed for probes and hybridized with a cDNA microarray (HuG133A, Affymetrix) which represents 22,283 human series. DNA chips were read with a Hewlett-Packard GeneArray Scanner at a resolution of […] and were analyzed with the GeneSpring software (Silicon Genetics, Redwood City, Calif.). Details of this analysis will be published elsewhere (Hsu et al., manuscript in preparation).
Gene assays provide a valuable tool for studying the broad response of cells to agents, and we have used this approach to compare the differential effects of GTPP on gene expression in NHEK and human oral squamous carcinoma cells (Hsu, et al, manuscript in preparation). […] See also Hsu, S. et al. (2005) JPET 315:805-811, which is incorporated by reference in its entirety.

Structure (SMILES): O=C(O[C@@H]1Cc2c(O)cc(O)cc2O[C@@H]1c1cc(O)c(O)c(O)c1)c1cc(O)c(O)c(O)c1 [EGCG, (−)-epigallocatechin-3-gallate]
- 60 kDa, SS-A/Ro (210438_x_at) expression, normalized (2 h): 0.92
- 60 kDa, SS-A/Ro (212852_s_at) expression, normalized (2 h): 0.98
- Ku autoantigen, 80 kDa (208642_s_at) expression, normalized (2 h): 1.14
- Ku autoantigen, 80 kDa (208643_s_at) expression, normalized (2 h): 1.40
- Nuclear antigen SP100 (202863_at) expression, normalized (2 h): 1.04
- Nuclear antigen SP100 (202864_s_at) expression, normalized (2 h): 1.21
- Nuclear antigen SP10075 kDa (213226_at) expression, normalized (2 h): 1.09
- RNA polymerase 1 (202692_s-at) expression, normalized (2 h): 0.48
- SS-B/La (201138_s_at) expression, normalized (2 h): 0.88
- SS-B/La (201139_s_at) expression, normalized (2 h): 0.74
- centromere protein C1 (20473_at) expression, normalized (2 h): 0.46
- coilin (203653_s_at) expression, normalized (2 h): 0.54
- coilin (203654_s_at) expression, normalized (2 h): 0.78
- fodrin-α (208611_s_at) expression, normalized (2 h): 0.75
- fodrin-α (215235_s_at) expression, normalized (2 h): 0.97
- golgin-67 (208797_s_at) expression, normalized (2 h): 0.71
- golgin-67 (208798_x_at) expression, normalized (2 h): 0.46
- golgin-67 (210425_x_at) expression, normalized (2 h): 0.47
- golgin-67 (213650_at) expression, normalized (2 h): 0.61
- scleroderma autoantigen 1, 75 kDa (213226_at) expression, normalized (2 h): 1.09
- spectrin-β non-erythrocyctic 1 (212071_s_at) expression, normalized (2 h): 0.92
- thyroid autoantigen 70 kDa (Ku antigen) (200792_at) expression, normalized (2 h): 1.19
- ADPRT [poly(ADP)-ribose polymerase] expression (2 h, vs time zero): 1.201 fold
- ANAP12 expression (2 h, vs time zero): 0.991 fold
- ANXA11 expression (2 h, vs time zero): 1.26 fold
- CALR expression (2 h, vs time zero): 0.943 fold
- CBARA1 expression (2 h, vs time zero): 0.773 fold
- CENPA expression (2 h, vs time zero): 1.095 fold
- CENPB expression (2 h, vs time zero): 0.773 fold
- CENPC1 expression (2 h, vs time zero): 0.457 fold
- CHD4 expression (2 h, vs time zero): 0.811 fold
- COL17A1 expression (2 h, vs time zero): 1.102 fold
- CTDSP1 expression (2 h, vs time zero): 1.00 fold
- CTDSP2 expression (2 h, vs time zero): 1.21 fold
- CTDSPL expression (2 h, vs time zero): 1.12 fold
- DLAT expression (2 h, vs time zero): 0.924 fold
- EPPK1 expression (2 h, vs time zero): 0.856 fold
- FBL expression (2 h, vs time zero): 1.12 fold
- FLJ31657 expression (2 h, vs time zero): 0.608 fold
- FLNB (Filamin B, β) expression (2 h, vs time zero): 1.168 fold
- FLNB (Filamin B, γ) expression (2 h, vs time zero): 0.92 fold
- G22P1 (Thyroid autoantigen, 70 kDa, Ku antigen) expression (2 h, vs time zero): 1.185 fold
- GMEB2 expression (2 h, vs time zero): 0.739 fold
- GOLGA1 expression (2 h, vs time zero): 0.182 fold
- GOLGA2 expression (2 h, vs time zero): 0.642 fold
- GOLGA3 expression (2 h, vs time zero): 0.58 fold
- GOLGA4 expression (2 h, vs time zero): 0.748 fold
- GOLGA5 expression (2 h, vs time zero): 0.928 fold
- GOLGB1 expression (2 h, vs time zero): 0.704 fold
- HARS expression (2 h, vs time zero): 1.11 fold
- HARSL expression (2 h, vs time zero): 1.05 fold
- HSA6591 expression (2 h, vs time zero): 0.835 fold
- HUMAUANTIG expression (2 h, vs time zero): 0.779 fold
- IMP-2 expression (2 h, vs time zero): 1.366 fold
- LAD1 expression (2 h, vs time zero): 0.681 fold
- LMO4 expression (repeat 1) (2 h, vs time zero): 0.867 fold
- LMO4 expression (repeat 2) (2 h, vs time zero): 1.199 fold
- MGC5560 expression (repeat 1) (2 h, vs time zero): 1.161 fold
- MGC5560 expression (repeat 2) (2 h, vs time zero): 0.932 fold
- NS (Nucleostemin) expression (2 h, vs time zero): 0.95 fold
- PDHB expression (2 h, vs time zero): 1.14 fold
- PDX1 expression (2 h, vs time zero): 0.765 fold
- PMSCL1, 75 kDa expression (2 h, vs time zero): 1.09 fold
- PMSCL2 expression (2 h, vs time zero): 0.938 fold
- POLR1B expression (2 h, vs time zero): 1.03 fold
- POLR1D expression (2 h, vs time zero): 0.96 fold
- POLR2A expression (repeat 1) (2 h, vs time zero): 1.29 fold
- POLR2A expression (repeat 2) (2 h, vs time zero): 0.45 fold
- POLR2B expression (2 h, vs time zero): 1.02 fold
- POLR2C expression (2 h, vs time zero): 1.60 fold
- POLR2D expression (2 h, vs time zero): 0.95 fold
- POLR2E expression (2 h, vs time zero): 0.70 fold
- POLR2F expression (2 h, vs time zero): 1.00 fold
- POLR2G expression (2 h, vs time zero): 1.02 fold
- POLR2H expression (2 h, vs time zero): 0.85 fold
- POLR3C expression (2 h, vs time zero): 0.73 fold
- POLR3G expression (2 h, vs time zero): 1.00 fold
- PSME3 expression (2 h, vs time zero): 1.151 fold
- RALY expression (2 h, vs time zero): 0.752 fold
- SART1 expression (2 h, vs time zero): 1.188 fold
- SLC25A16 expression (2 h, vs time zero): 0.886 fold
- SNRP70 expression (2 h, vs time zero): 1.01 fold
- SNRPA expression (2 h, vs time zero): 0.93 fold
- SNRPB2 expression (2 h, vs time zero): 0.67 fold
- SNRPB expression (repeat 1) (2 h, vs time zero): 0.95 fold
- SNRPB expression (repeat 2) (2 h, vs time zero): 0.79 fold
- SNRPC expression (2 h, vs time zero): 1.08 fold
- SNRPD1 expression (repeat 1) (2 h, vs time zero): 1.285 fold
- SNRPD1 expression (repeat 2) (2 h, vs time zero): 0.676 fold
- SOX13 expression (2 h, vs time zero): 0.771 fold
- SP100 expression (repeat 1) (2 h, vs time zero): 1.037 fold
- SP100 expression (repeat 2) (2 h, vs time zero): 1.205 fold
- SP110 expression (repeat 1) (2 h, vs time zero): 1.702 fold
- SP110 expression (repeat 2) (2 h, vs time zero): 1.804 fold
- SP110 expression (repeat 3) (2 h, vs time zero): 1.026 fold
- SPTAN1 (α-fodrin) expression (repeat 1) (2 h, vs time zero): 0.75 fold
- SPTAN1 (α-fodrin) expression (repeat 2) (2 h, vs time zero): 0.97 fold
- SPTBN expression (2 h, vs time zero): 0.92 fold
- SSA2 (autoantigen SS-A/Ro) expression (repeat 2) (2 h, vs time zero): 0.919 fold
- SSA2 expression (repeat 1) (2 h, vs time zero): 0.335 fold
- SSA2 expression (repeat 3) (2 h, vs time zero): 0.957 fold
- SSA2 expression (repeat 4) (2 h, vs time zero): 0.98 fold
- SSB (autoantigen La) expression (repeat 1) (2 h, vs time zero): 0.878 fold
- SSB (autoantigen La) expression (repeat 2) (2 h, vs time zero): 0.739 fold
- SSNA1 expression (2 h, vs time zero): 1.17 fold
- SSSCA1 expression (2 h, vs time zero): 1.694 fold
- STRN3 expression (2 h, vs time zero): 0.623 fold
- TOP1 expression (repeat 1) (2 h, vs time zero): 1.09 fold
- TOP1 expression (repeat 2) (2 h, vs time zero): 0.62 fold
- UBTF expression (2 h, vs time zero): 0.484 fold
- XRCC5 (Ku autoantigen, 80 kDa) expression (repeat 1) (2 h, vs time zero): 1.403 fold
- XRCC5 (Ku autoantigen, 80 kDa) expression (repeat 2) (2 h, vs time zero): 1.141 fold
- dJ963E22.1 expression (2 h, vs time zero): 0.864 fold
- α-NAC expression (2 h, vs time zero): 0.521 fold
- 60 kDa, SS-A/Ro (210438_x_at) expression, normalized (6 h): 0.69
